Assay results taken from PubChem BioAssay AID504313 (Emory University Molecular Libraries Screening Center, 2011).
pIC50: −log10 of the molar value. The source made the active and inactive calls. How the calls were made is not given here.

Each molecule was assayed against X-box-binding protein 1 (Homo sapiens) (UniProt P17861) (assay: inhibitors of XBP1 reporter signal, dose response, counter-screen, cell-based (AID 504313;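 further: CHO cells carrying an XBP1 reporter stimulated with tunicamycin; potency is for inhibition of the tunicamycin-induced reporter signal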)). Conditions: XBP1 reporter cell assay, percent of control.
For CCC(NC(=O)Nc1nnc(C(F)(F)F)s1)(C(F)(F)F)C(F)(F)F, the pIC50 was 5.70. Cc1ccc2nc(NC(=O)C3CCN(S(=O)(=O)c4cc([N+](=O)[O-])ccc4Cl)CC3)sc2c1 was tested, and the IC50 was “inactive”. In the case of O=S(=O)(Nc1cc(Sc2ncn[nH]2)c(O)c2ccccc12)c1ccccc1, the IC50 was “inactive”. O=S(=O)(NCC(Nc1ccc(Cl)cc1)c1ccccc1)c1ccc(Cl)cc1 (stereo not drawn) was tested, and the IC50 was > 10 µM (inactive). O=C(Cn1c(C(F)(F)F)nc2ccccc21)N=Nc1c(O)[nH]c2ccc(Br)cc12 was tested, and the IC50 was > 10 µM (inactive). C[C@H]1C[C@@H](C)C(=O)[C@@H]([C@H](O)CC2CC(=O)NC(=O)C2)C1 showed a pIC50 of 6.68. O=S(=O)(Nc1ccccc1)c1ccc(Oc2ncc(C(F)(F)F)cc2Cl)cc1 showed a pIC50 of 5.67. Work on CCOc1cc(/C=C\[N+](=O)[O-])ccc1OCC(=O)Nc1ccccc1C yielded a pIC50 of 5.34. CCOc1cc(C)c(-c2onc(C(F)(F)F)c2-c2csc(C)n2)c(O)c1 was tested, and the IC50 was “inactive”. Cc1cccc(NC2=C/C(=N/S(=O)(=O)c3cccs3)c3ccccc3C2=O)c1 gave a pIC50 of 5.88. For O=C(Nc1ccc(Oc2ccccc2)cc1)C1CCN(c2c3c(nc4ncnn24)CCC3)CC1, the IC50 was > 10 µM (inactive). In the case of Cc1ccccc1NC(=O)/C=C/c1ccc([N+](=O)[O-])s1, the IC50 was “inactive”. In the case of O=C(O)c1ccc(N/N=C/c2ccc3nccnc3c2)cc1, the pIC50 was 5.74. COc1cc(-c2nc3ccc4ccccc4c3c3c2CCC3)cc(OC)c1O was tested, and the IC50 was “inactive”. With CC1=C(CO)C(=O)OC([C@@H](C)C2CC[C@H]3C4C[C@H]5O[C@]56[C@@H](O)C=CC(=O)[C@]6(C)C4CC[C@]23C)C1 (stereo partly drawn) the IC50 was > 10 µM (inactive). With CCCCc1nc(NCCN)c(C#N)c2c1CSC(C)(C)C2 the IC50 was “inactive”. For CC1=C(C)/C(=N\OS(=O)(=O)c2ccccc2)C=CC1=O, the pIC50 was 5.54. In the case of CC(C)c1ccc(O)c(NC(=S)NC(=O)CCc2ccccc2)c1, the IC50 was “inactive”. COc1ccc(C(C(=O)NC2CCCCC2)N(C(=O)CCl)c2cccc(Cl)c2)cc1 (stereo not drawn) was tested, and the IC50 was “inactive”. With O=C(Nc1ccccc1)C1=C(c2ccccc2)S(=O)(=O)CCS1(=O)=O the IC50 was “inactive”. In the case of O=C(NNc1ccccc1Br)C(O)(c1cccc(C(F)(F)F)c1)c1cccc(C(F)(F)F)c1, the IC50 was “inactive”. In the case of Cn1c(=O)c(C(=O)Nc2ncccc2O)c(O)c2ccccc21, the IC50 was > 10 µM (inactive). In the case of NC(=O)CC(NC(=O)Cc1cccc2ccccc12)c1ccc(NCc2ccc(F)cc2)c([N+](=O)[O-])c1 (stereo not drawn), the IC50 was > 10 µM (inactive). In the case of O=C(COc1ccc(Cl)cc1Cl)Nc1ccccn1, the IC50 was “inactive”. Molecule CCCCCn1c(=O)c(C(=O)Nc2nc3ccccc3[nH]2)c(O)c2ccccc21 has a pIC50 of 5.37. C=CS(=O)(=O)c1ccc(Oc2ccc(S(=O)(=O)C=C)cc2)cc1 showed a pIC50 of 6.00. With Cc1cc(/C=N/n2cnnc2)c(C)n1-c1ccc(OCc2ccc(F)cc2)cc1 the IC50 was “inactive”. C=C(C)Cn1c(N2CCC(Cc3ccccc3)CC2)nc2c1c(=O)[nH]c(=O)n2C was tested, and the IC50 was > 10 µM (inactive). CCN1C=CC(=C2C(=O)c3ccccc3C2=O)C=C1 was tested, and the IC50 was “inactive”. In the case of O=C(CN1C(=O)c2ccccc2S1(=O)=O)c1ccc2c(c1)OCCCO2, the pIC50 was 6.43. With CCOc1cccc(C(=O)Nc2cccc(-c3nnc(-c4ccc(C)cc4)o3)c2)c1 the IC50 was > 10 µM (inactive). Cc1ccc(NC(=O)c2cc3ccccc3oc2=O)cc1S(=O)(=O)N(C)C showed a pIC50 of over 6.80. CC(C)Cn1c(N)c(C(=O)COC(=O)C2CCCCC2)c(=O)n(C)c1=O was tested, and the IC50 was > 10 µM (inactive). In the case of Cc1cc(C)c(S(=O)(=O)ON2C(=O)c3ccccc3C2=O)cc1C, the IC50 was > 10 µM (inactive). In the case of CC(C)CCN(C(=O)Cc1ccc(Cl)c(Cl)c1)c1c(N)n(Cc2ccccc2)c(=O)[nH]c1=O, the IC50 was “inactive”. CC1CCN(C(=O)/C(=C/c2ccccc2Cl)c2ccccc2)CC1 was tested, and the IC50 was “inactive”. NC(=O)CC(NC(=O)Cc1cccc2ccccc12)c1ccc(NCc2cc(F)ccc2F)c([N+](=O)[O-])c1 (stereo not drawn) was tested, and the IC50 was > 10 µM (inactive). Work on CC(C)c1ccc(-c2cc(C(=O)N3N=C(C(F)F)CC3(O)C(F)F)c3ccccc3n2)cc1 (stereo not drawn) yielded a pIC50 of 5.30. CCc1ccc(-c2cc(C(=O)N3N=C(C(F)F)CC3(O)C(F)F)c3ccccc3n2)cc1 (stereo not drawn) was tested, and the IC50 was “inactive”. Cc1ccc(/C=N/NC(=O)CCCOc2ccc(Cl)cc2Cl)cc1 was tested, and the IC50 was > 10 µM (inactive). For O=C1CC(c2cccc(Cl)c2)CC(O)=C1C=Nc1cccc(Cl)c1 (stereo not drawn), the IC50 was > 10 µM (inactive). COc1c(CC=C(C)C)cc(C2CC(=O)c3c(O)cc(O)cc3O2)cc1CC=C(C)C (stereo not drawn) was tested, and the IC50 was “inactive”. With CSc1nc2c(cnn2-c2ccc(C)c(C)c2)c(=O)[nH]1 the IC50 was > 10 µM (inactive). In the case of CC1CCC(n2c(=S)[nH]c3ccccc3c2=O)CC1 (stereo not drawn), the IC50 was > 10 µM (inactive). For CN(C)c1ccc(/C=C2\SC(=O)N(CCc3nnc(N)s3)C2=O)cc1, the IC50 was “inactive”. For Cc1ccc(NC(=O)c2nc[nH]c2C(=O)N[C@@H](C)C(=O)OC(C)(C)C)cc1, the pIC50 was 5.38. CCOC(=O)/C=C/S(=O)(=O)c1ccc(NC(C)=O)cc1 was tested, and the IC50 was “inactive”. In the case of CC[C@@H]1CC=C[C@H]2[C@H]1C(=O)N(Cc1ccccc1)[C@H]2c1ccoc1, the IC50 was “inactive”.
